Source: patent US7060822B1, “2-pyrazolin-5-ones” (Abbott GmbH & Co. KG, priority 1999, dated 2006)

CCN(CC)CCc1c(C)[nH]c(C=C2C(=O)NN=C2c2ccnnc2)c1C [Example 209, 4-{[4-(2-Diethylaminoethyl)-3,5-dimethylpyrrol-2-yl]methylene}-3-(4-pyridazinyl)-2-pyrazolin-5-one]
melting point: 212 to 216 °C

O=C1NN=C(Cc2ccccc2)C1=Cc1c[nH]c2ccccc12 [Example 210, 3-Benzyl-4-[(indol-3-yl)methylene]-2-pyrazolin-5-one]
melting point: 292 to 295 °C

O=C1NN=C(Cc2ccccc2)C1=Cc1cn(CCCCO)c2ccccc12 [Example 211, 3-Benzyl-4-{[1-(4-hydroxybutyl)indol-3-yl]methylene}-2-pyrazolin-5-one]
melting point: 217 to 220 °C

COc1ccc(OCC2=NNC(=O)C2=Cc2c[nH]c3ccccc23)cc1 [Example 212, 4-[(Indol-3-yl)methylene]-3-(4-methoxyphenyloxymethyl)-2-pyrazolin-5-one]
melting point: 266 to 268 °C

O=C1NN=C(COc2ccccc2)C1=Cc1c[nH]c2ccccc12 [Example 213, 4-[(Indol-3-yl)methylene]-3-phenyloxymethyl-2-pyrazolin-5-one]
melting point: 284 to 286 °C

O=C1NN=C(COc2ccc(Cl)cc2)C1=Cc1c[nH]c2ccccc12 [Example 214, 3-(4-Chlorophenyloxymethyl)-4-[(indol-3-yl)methylene]-2-pyrazolin-5-one]
melting point: 264 to 267 °C

COc1ccc(CC2=NNC(=O)C2=Cc2c[nH]c3ccccc23)cc1 [Example 215, 4-[(Indol-3-yl)methylene]-3-(4-methoxybenzyl)-2-pyrazolin-5-one]
melting point: 265 to 270 °C

Cc1ccc(OCC2=NNC(=O)C2=Cc2c[nH]c3ccccc23)cc1 [Example 216, 4-[(Indol-3-yl)methylene]-3-(4-methylphenyloxymethyl)-2-pyrazolin-5-one]
melting point: 288 to 291 °C

O=C1NN=C(CCc2ccccc2)C1=Cc1c[nH]c2ccccc12 [Example 217, 4-[(Indol-3-yl)methylene]-3-phenylethyl-2-pyrazolin-5-one]
melting point: 268 to 270 °C

Cc1ccc(CC2=NNC(=O)C2=Cc2c[nH]c3ccccc23)cc1 [Example 219, 4-[(Indol-3-yl)methylene]-3-(4-methylbenzyl)-2-pyrazolin-5-one]
melting point: 280 to 282 °C

O=C1NN=C(Nc2ccccc2)C1=Cc1c[nH]c2ccccc12 [Example 220, 4-[(Indol-3-yl)methylene]-3-phenylamino-2-pyrazolin-5-one]
melting point: 265 to 267 °C

Cc1ccc(NC2=NNC(=O)C2=Cc2c[nH]c3ccccc23)cc1 [Example 221, 4-[(Indol-3-yl)methylene]-3-(4-methylphenylamino)-2-pyrazolin-5-one]
melting point: 255 to 257 °C

COc1ccc(NC2=NNC(=O)C2=Cc2c[nH]c3ccccc23)cc1 [Example 222, 4-[(Indol-3-yl)methylene]-3-(4-methoxyphenylamino)-2-pyrazolin-5-one]
melting point: 265 to 267 °C

O=C1NN=C(Cc2ccc(Cl)cc2)C1=Cc1c[nH]c2ccccc12 [Example 223, 3-(4-Chlorobenzyl)-4-[(indol-3-yl)methylene]-2-pyrazolin-5-one]
melting point: 274 to 277 °C

COc1ccc(CC2=NNC(=O)C2=Cc2cn(CCCCO)c3ccccc23)cc1 [Example 224, 4-{[1-(4-hydroxybutyl)indol-3-yl]methylene}-3-(4-methoxybenzyl)-2-pyrazolin-5-one]
melting point: 204 to 206 °C

O=C1NN=C(Nc2ccc(Cl)cc2)C1=Cc1c[nH]c2ccccc12 [Example 225, 3-(4-Chlorophenylamino)-4-[(indol-3-yl)methylene]-2-pyrazolin-5-one]
melting point: 248 to 250 °C

COc1cccc(CC2=NNC(=O)C2=Cc2c[nH]c3ccccc23)c1 [Example 226, 4-[(Indol-3-yl)methylene]-3-(3-methoxybenzyl)-2-pyrazolin-5-one]
melting point: 288 to 290 °C

COc1ccc(CC2=NNC(=O)C2=Cc2c[nH]c3ccccc23)cc1OC [Example 227, 3-(3,4-dimethoxybenzyl)-4-[(indol-3-yl)methylene]-2-pyrazolin-5-one]
melting point: 282 to 284 °C

O=C1NN=C(Cc2ccc(O)cc2)C1=Cc1c[nH]c2ccccc12 [Example 228, 3-(4-hydroxybenzyl)-4-[(indol-3-yl)methylene]-2-pyrazolin-5-one]
melting point: 295 to 300 °C

O=C1NN=C(COc2cccc(Cl)c2)C1=Cc1c[nH]c2ccccc12 [Example 229, 3-(3-Chlorophenyloxymethyl)-4-[(indol-3-yl)methylene]-2-pyrazolin-5-one]
melting point: 265 to 268 °C

O=C1NN=C(c2c[nH]c3ccccc23)C1=Cc1c[nH]c2ccccc12 [Example 230, 3-(Indol-3-yl)-4-[(indol-3-yl)methylene]-2-pyrazolin-5-one]
melting point: 288 to 292 °C

COc1ccc(CCC2=NNC(=O)C2=Cc2c[nH]c3ccccc23)cc1 [Example 231, 4-[(Indol-3-yl)methylene]-3-(4-methoxyphenylethyl)-2-pyrazolin-5-one]
melting point: 266 to 268 °C

O=C1NN=C(COc2ccc(-c3ccccc3)cc2)C1=Cc1c[nH]c2ccccc12 [Example 232, 4-[(Indol-3-yl)methylene]-3-(4-phenylphenyloxymethyl)-2-pyrazolin-5-one]
melting point: 295 to 296 °C

CC(CC1=NNC(=O)C1=Cc1c[nH]c2ccccc12)c1ccccc1 (stereo not drawn) [Example 233, 4-[(Indol-3-yl)methylene]-3-(2-phenylpropyl)-2-pyrazolin-5-one]
melting point: 253 to 255 °C

O=C1NN=C(CCCc2ccccc2)C1=Cc1c[nH]c2ccccc12 [Example 234, 4-[(Indol-3-yl)methylene]-3-(3-phenylpropyl)-2-pyrazolin-5-one]
melting point: 218 to 220 °C

O=C1NN=C(CCc2ccc(O)cc2)C1=Cc1c[nH]c2ccccc12 [Example 235, 3-(4-Hydroxyphenylethyl)-4-[(indol-3-yl)methylene]-2-pyrazolin-5-one]
melting point: 271 to 275 °C

Cc1ccc(CCC2=NNC(=O)C2=Cc2c[nH]c3ccccc23)cc1 [Example 236, 4-[(Indol-3-yl)methylene]-3-(4-methylphenylethyl)-2-pyrazolin-5-one]
melting point: 244 to 245 °C

CCOC1=NNC(=O)C1=Cc1c[nH]c2ccccc12 [Example 237, 3-Ethoxy-4-[(indol-3-yl)methylene]-2-pyrazolin-5-one]
melting point: 248 to 250 °C

CC(C)OC1=NNC(=O)C1=Cc1cn(CCCCO)c2ccccc12 [Example 238, 4-{[1-(4-Hydroxybutyl)indol-3-yl]methylene}-3-isopropoxy-2-pyrazolin-5-one]
melting point: 210 to 212 °C

O=C1NN=C(CCc2ccccc2)C1=Cc1cn(CCCCO)c2ccccc12 [Example 239, 4-{[1-(4-Hydroxybutyl)indol-3-yl]methylene}-3-phenylethyl-2-pyrazolin-5-one]
melting point: 205 to 207 °C

O=C1NN=C(CCc2ccc([N+](=O)[O-])cc2)C1=Cc1c[nH]c2ccccc12 [Example 240, 4-[(Indol-3-yl)methylene]-3-(4-nitrophenylethyl)-2-pyrazolin-5-one]
melting point: 295 to 297 °C

CCCOC1=NNC(=O)C1=Cc1c[nH]c2ccccc12 [Example 241, 4-[(Indol-3-yl)methylene]-3-propoxy-2-pyrazolin-5-one]
melting point: 246 to 247 °C

O=C1NN=C(Nc2ccc(F)cc2)C1=Cc1c[nH]c2ccccc12 [Example 242, 3-(4-Fluorophenylamino)4-[(indol-3-yl)methylene]--2-pyrazolin-5-one]
melting point: 251 to 252 °C

Nc1ccc(CCC2=NNC(=O)C2=Cc2c[nH]c3ccccc23)cc1 [Example 243, 3-(4-Aminophenylethyl)-4-[(indol-3-yl)methylene]-2-pyrazolin-5-one]
melting point: 244 to 246 °C

Cc1[nH]c2ccccc2c1C=C1C(=O)NN=C1OC(C)C [Example 244, 3-Isopropoxy-4-[(2-methylindol-3-yl)methylene]-2-pyrazolin-5-one]
melting point: 262 to 264 °C

Cc1cccc2c(C=C3C(=O)NN=C3OC(C)C)c[nH]c12 [Example 245, 3-Isopropoxy-4-[(7-methylindol-3-yl)methylene]-2-pyrazolin-5-one]
melting point: 254 to 256 °C

Cc1cccc2c(C=C3C(=O)NN=C3CCc3ccccc3)c[nH]c12 [Example 246, 4-[(7-Methylindol-3-yl)methylene]-3-phenylethyl-2-pyrazolin-5-one]
melting point: 302 to 304 °C

O=C1NN=C(C2CCCC2)C1=Cc1c[nH]c2ccccc12 [Example 247, 3-Cyclopentyl-4-[(indol-3-yl)methylene]-2-pyrazolin-5-one]
melting point: 277 to 279 °C

CC(C)OC1=NNC(=O)C1=Cc1cn(C)c2ccccc12 [Example 248, 3-Isopropoxy-4-[(1-methylindol-3-yl)methylene]-2-pyrazolin-5-one]
melting point: 239 to 240 °C

COC(=O)c1ccc(CCC2=NNC(=O)C2=Cc2c[nH]c3ccccc23)cc1 [Example 249, 4-[(Indol-3-yl)methylene]-3-(4-methoxycarbonylphenylethyl)-2-pyrazolin-5-one]
melting point: 259 to 260 °C

CC(C)OC1=NNC(=O)C1=Cc1cn(C(C)C)c2ccccc12 [Example 250, 3-Isopropoxy-4-[(1-isopropylindol-3-yl)methylene]-2-pyrazolin-5-one]
melting point: 161 to 163 °C

Cn1cc(C=C2C(=O)NN=C2CCc2ccc(O)cc2)c2ccccc21 [Example 251, 3-(4-Hydroxyphenylethyl)-4-[(1-methylindol-3-yl)methylene]-2-pyrazolin-5-one]
melting point: 255 to 257 °C

CC(C)C1=NNC(=O)C1=Cc1c[nH]c2ccccc12 [Example 252, 3-Isopropyl-4-[(indol-3-yl)methylene]-2-pyrazolin-5-one]
melting point: 264 to 266 °C

O=C(CC1=NNC(=O)C1=Cc1c[nH]c2ccccc12)Nc1ccc(Cl)cc1 [Example 253, 3-(4-Chlorophenylaminocarbonylmethyl)-4-[(indol-3-yl)methylene]-2-pyrazolin-5-one]
melting point: 305 to 307 °C

CCOC(=O)CC1=NNC(=O)C1=Cc1c[nH]c2ccccc12 [Example 254, 3-Ethoxycarbonylmethyl-4-[(indol-3-yl)methylene]-2-pyrazolin-5-one]
melting point: 235 to 237 °C
